The text below walks through data of PubChem BioAssay (NCI).

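Interpolation was linear, between the two tested concentrations surrounding the appropriate level; five concentrations were tested over 48 hours in 96-well plates. TGI denotes the concentration required for complete inhibition of growth.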

Common to all, as to assay: NCI tumour cell line growth inhibition, 48 h
Assay [1] relates to ACHN renal.
In assay [2] the test system is EKVX NSCLC.
In assay [3] the test system is HCT-15 colon.
Assay [4] concerns HOP-62 NSCLC.
The test system of assay [5] is HOP-92 NSCLC.
Assay [6] deals with MALME-3M melanoma.
For assay [7], the system named is MCF7 breast.
Assay [8] concerns MDA-MB-231 breast.
In assay [9] the test system is MDA-N.
For assay [10], the system named is NCI-H226 lung.
Assay [11] deals with NCI-H23 lung.
For assay [12], the system named is NCI-H460 lung.
Assay [13] deals with OVCAR-5 ovarian.
Assay [14] has as its system PC-3 prostate.
For assay [15], the system named is SF-268 CNS.
In assay [16] the test system is CAKI-1 renal.
In assay [17] the test system is T-47D breast.
In assay [18] the test system is NCI-H522 lung.

Turning to `Cc1ccc(S(=O)(=O)N(CCN)c2cc3c4c(c2)Oc2cccc5c2C4c2c(cccc2O3)O5)cc1`, the TGI in assay [1] was above 100 µM; in assay [2], 29 µM; in assay [3], above 100 µM; in [4], 28.7 µM; in [5] it was 70.8 µM; in assay [6], 22.2 µM. Moreover, the TGI is 47.8 µM in assay [7]; 40.9 µM in [8]; 67.6 µM in assay [9]; 24.8 µM in assay [10]; above 100 µM in [11]; above 100 µM in assay [12]. Besides, the TGI came out at 62.1 µM in assay [13], 35.7 µM in [14] and 27.4 µM in assay [15].

For `Oc1ccc(Br)cc1C=Nc1c(NC2CCCCC2)oc2ccc(Br)cc12`, the TGI in assay [1], in assay [16], in [2], in assay [3], in assay [4] and in assay [6] was above 100 µM throughout. In addition, the TGI in assay [7] was 83.2 µM; in [8], above 100 µM; in assay [9], above 100 µM; in [10] it was above 100 µM; in assay [11] it was 56 µM; in assay [12] it was above 100 µM. The TGI in assay [13], in assay [15] and in assay [17] was above 100 µM in each case.

With `O=S(Cc1ccccc1)c1ccccc1Cn1cccc1` (stereo not given), the TGI in [1], in assay [16], in assay [2], in [3], in assay [4] and in assay [5] was above 100 µM each time. Besides, the TGI in assay [6], in [7], in [8], in assay [11], in assay [12] and in [13] was above 100 µM each time. For the same molecule, the TGI in assay [14], in assay [15] and in assay [17] was above 100 µM in each case.

Take `CC1(C)CN(CC(=O)O)CC(Cc2ccc(OCC(=O)O)cc2)N(CC(=O)O)CC(C)(C)SS1` (stereo not given): the TGI in assay [1], in assay [16], in assay [2], in [3], in [4] and in [5] was above 100 µM each time. Further, the TGI in assay [6], in assay [7], in assay [8], in assay [9], in assay [10] and in [11] was above 100 µM each time. Besides, the TGI in assay [12], in assay [18], in [13], in assay [14] and in assay [15] was above 100 µM each time.

`CC(=O)C1C(=O)C(=O)N(c2ccc([N+](=O)[O-])cc2[N+](=O)[O-])C1=O` (stereo not given): the TGI in assay [1], in [16], in assay [2], in assay [3], in [4] and in assay [5] was above 100 µM each time. Also, the TGI in assay [7], in [8], in assay [10], in [11], in assay [12] and in assay [18] was above 100 µM throughout. The TGI in assay [13], in assay [14] and in [15] was above 100 µM each time.

As to `CCOC(=O)c1c(CN2CCNCC2)nc2ccc(Cl)cc2c1-c1ccccc1`, the TGI was 12.9 µM in [1]; 8.11 µM in [16]; 23.4 µM in [2]; 10.5 µM in assay [3]; 21.6 µM in assay [4]; 3.16 µM in assay [5]. Also, the TGI in assay [6] turned out to be 3.56 µM; in assay [7] it was 28.6 µM; in assay [10], 33.4 µM; in assay [11], 25.7 µM; in assay [12], 6.32 µM; in assay [18], 9.41 µM. Besides, the TGI in assay [13] was found to be 36 µM; in assay [14] it was 12.4 µM; in assay [15], 17.9 µM; in [17], 20.6 µM.

For `CC(C)CC(=O)CC(C)[C@]1(CCCOCc2ccccc2)C(=O)N2CCC3(C[C@@]24CCC[C@H]41)OCCO3` (stereo not given in full), the TGI in assay [16], in assay [2], in assay [3], in [4], in [5] and in [7] was above 10 µM throughout. Moreover, the TGI in assay [8], in assay [9], in assay [10], in [11], in assay [12] and in assay [18] was above 10 µM in each case. Further, the TGI in [13], in assay [14] and in [15] was above 10 µM each time.

In the case of `Cc1[nH]c2ncn3[nH]c(=S)nc3c2c1Cc1ccccc1`, the TGI in [1], in [16], in assay [2], in assay [3], in [4] and in assay [5] was above 100 µM each time. Besides, the TGI in assay [6], in assay [7], in [8], in assay [10], in assay [11] and in [12] was above 100 µM each time. For the same molecule, the TGI in assay [18], in [13], in [14], in assay [15] and in assay [17] was above 100 µM each time.

In the case of `NCCCN(CCCCN(CCCN)Cc1ccccc1)Cc1ccccc1`, the TGI in assay [1] was above 100 µM; in assay [16] it was 31.9 µM; in assay [2], 96.5 µM; in assay [3], above 100 µM; in [6], above 100 µM; in assay [7] it was 60.5 µM. For the same molecule, the TGI in assay [8] is above 100 µM; in [9], 33.1 µM; in assay [10], above 100 µM; in assay [11], above 100 µM; in [12], 32.2 µM; in [18], 23.9 µM. Moreover, the TGI is 37.8 µM in [13], 37.1 µM in [15] and above 100 µM in assay [17].
